Source: patent US20260262643A1, “HERBICIDAL BENZOXAZINES” (FMC CORPORATION, priority 2022, published 2026)

Assays:
soybean [1] = test: Test A postemergence; format: in vivo, Glycine max; conditions: postemergence, 10 days
Procedure, shortened: (§1)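 Greenhouse pot test, 10 days. Compound (non-phytotoxic solvent, surfactant) sprayed on soil at seeding or on seedlings at one- to two-leaf stage. Visual injury rated 0–100 against untreated plants.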

pigweed, palmer [2] = test: Test A postemergence; format: in vivo, Amaranthus palmeri; conditions: postemergence, 10 days
Procedure, shortened: as §1

ducksalad = test: Test B flooded paddy test; format: in vivo, Heteranthera limosa; conditions: 250 g ai/ha, Flood, 13 days, 0 to 100 scale (0 no effect, 100 complete control)
Procedure, shortened: (§2)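 Plants at the 2-leaf stage were flooded to 3 cm above the soil, and test compounds were applied directly into the paddy water, with that depth held throughout. After 13 days in a greenhouse, injury was rated visually against untreated controls on a 0–100 scale (100 = complete control).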

goosegrass [3] = test: Test A preemergence; format: in vivo, Eleusine indica
Procedure, shortened: as §1

foxtail, giant [4] = test: Test A preemergence; format: in vivo, Setaria faberi
Procedure, shortened: as §1

galium = test: Test A postemergence; format: in vivo, Galium aparine; conditions: postemergence, 10 days
Procedure, shortened: as §1

goosegrass [5] = test: Test A postemergence; format: in vivo, Eleusine indica; conditions: postemergence, 10 days
Procedure, shortened: as §1

rice = test: Test B flooded paddy test; format: in vivo, Oryza sativa; conditions: 250 g ai/ha, Flood, 13 days, 0 to 100 scale (0 no effect, 100 complete control)
Procedure, shortened: as §2

corn [6] = test: Test A postemergence; format: in vivo, Zea mays; conditions: postemergence, 10 days
Procedure, shortened: as §1

blackgrass [7] = test: Test A postemergence; format: in vivo, Alopecurus myosuroides; conditions: postemergence, 10 days
Procedure, shortened: as §1

kochia [8] = test: Test A preemergence; format: in vivo, Bassia scoparia
Procedure, shortened: as §1

sedge, umbrella = test: Test B flooded paddy test; format: in vivo, Cyperus difformis; conditions: 250 g ai/ha, Flood, 13 days, 0 to 100 scale (0 no effect, 100 complete control)
Procedure, shortened: as §2

horseweed = test: Test A postemergence; format: in vivo, Erigeron canadensis; conditions: postemergence, 10 days
Procedure, shortened: as §1

blackgrass [9] = test: Test A preemergence; format: in vivo, Alopecurus myosuroides
Procedure, shortened: as §1

wheat [10] = test: Test A preemergence; format: in vivo, Triticum aestivum
Procedure, shortened: as §1

corn [11] = test: Test A preemergence; format: in vivo, Zea mays
Procedure, shortened: as §1

ryegrass, Italian [12] = test: Test A postemergence; format: in vivo, Lolium multiflorum; conditions: postemergence, 10 days
Procedure, shortened: as §1

wheat [13] = test: Test A postemergence; format: in vivo, Triticum aestivum; conditions: postemergence, 10 days
Procedure, shortened: as §1

ragweed [14] = test: Test A postemergence; format: in vivo, Ambrosia artemisiifolia; conditions: postemergence, 10 days
Procedure, shortened: as §1

ryegrass, Italian [15] = test: Test A preemergence; format: in vivo, Lolium multiflorum
Procedure, shortened: as §1

pigweed, palmer [16] = test: Test A preemergence; format: in vivo, Amaranthus palmeri
Procedure, shortened: as §1

ragweed [17] = test: Test A preemergence; format: in vivo, Ambrosia artemisiifolia
Procedure, shortened: as §1

oat, wild [18] = test: Test A preemergence; format: in vivo, Avena fatua
Procedure, shortened: as §1

oat, wild [19] = test: Test A postemergence; format: in vivo, Avena fatua; conditions: postemergence, 10 days
Procedure, shortened: as §1

foxtail, giant [20] = test: Test A postemergence; format: in vivo, Setaria faberi; conditions: postemergence, 10 days
Procedure, shortened: as §1

barnyardgrass = test: Test B flooded paddy test; format: in vivo, Echinochloa crus-galli; conditions: 250 g ai/ha, Flood, 13 days, 0 to 100 scale (0 no effect, 100 complete control)
Procedure, shortened: as §2

kochia [21] = test: Test A postemergence; format: in vivo, Bassia scoparia; conditions: postemergence, 10 days
Procedure, shortened: as §1

soybean [22] = test: Test A preemergence; format: in vivo, Glycine max
Procedure, shortened: as §1

[23] = 125 g ai/ha, 0 to 100 scale, 0 no effect, 100 complete control
[24] = 500 g ai/ha, visual injury, 0 to 100 scale (0 no effect, 100 complete control)
[25] = 125 g ai/ha, visual injury after 10 days, 0 to 100 scale, 0 is no effect, 100 is complete control
[26] = 500 g ai/ha, 0 to 100 scale (0 no effect, 100 complete control), 10 days

Cc1ccc(-n2cnc(C(C)(C)C)n2)cc1C(=O)N1C[C@H](C)Oc2c(C)cccc21 [Compound 100]
Soybean plant response rating (soybean [1]; [23]): 100 | Plant response rating, Soybean (soybean [1]; [24]): 100 | Pigweed, Palmer plant response rating (pigweed, palmer [2]; [23]): 70 | Plant response rating, Pigweed, Palmer (pigweed, palmer [2]; [24]): 100 | Plant response rating, Ducksalad (ducksalad): 40 | Plant response rating, Goosegrass (goosegrass [3]; [25]): 100 | Plant response rating, Goosegrass (goosegrass [3]; [26]): 100 | Plant response rating, Foxtail, Giant (foxtail, giant [4]; [25]): 100 | Plant response rating, Foxtail, Giant (foxtail, giant [4]; [26]): 100 | Galium plant response rating (galium; [23]): 80 | Plant response rating, Galium (galium; [24]): 100 | Goosegrass plant response rating (goosegrass [5]; [23]): 70 | Plant response rating, Goosegrass (goosegrass [5]; [24]): 100 | Plant response rating, Rice (rice): 0 | Corn plant response rating (corn [6]; [23]): 70 | Plant response rating, Corn (corn [6]; [24]): 70 | Blackgrass plant response rating (blackgrass [7]; [23]): 30 | Plant response rating, Blackgrass (blackgrass [7]; [24]): 90 | Plant response rating, Kochia (kochia [8]; [25]): 90 | Plant response rating, Kochia (kochia [8]; [26]): 100 | Plant response rating, Sedge, Umbrella (sedge, umbrella): 55 | Horseweed plant response rating (horseweed; [23]): 40 | Plant response rating, Horseweed (horseweed; [24]): 70 | Plant response rating, Blackgrass (blackgrass [9]; [25]): 60 | Plant response rating, Blackgrass (blackgrass [9]; [26]): 70 | Plant response rating, Wheat (wheat [10]; [25]): 50 | Plant response rating, Wheat (wheat [10]; [26]): 60 | Plant response rating, Corn (corn [11]; [25]): 0 | Plant response rating, Corn (corn [11]; [26]): 40 | Ryegrass, Italian plant response rating (ryegrass, Italian [12]; [23]): 50 | Plant response rating, Ryegrass, Italian (ryegrass, Italian [12]; [24]): 80 | Wheat plant response rating (wheat [13]; [23]): 30 | Plant response rating, Wheat (wheat [13]; [24]): 40 | Ragweed plant response rating (ragweed [14]; [23]): 60 | Plant response rating, Ragweed (ragweed [14]; [24]): 70 | Plant response rating, Ryegrass, Italian (ryegrass, Italian [15]; [25]): 90 | Plant response rating, Ryegrass, Italian (ryegrass, Italian [15]; [26]): 100 | Plant response rating, Pigweed, Palmer (pigweed, palmer [16]; [25]): 100 | Plant response rating, Pigweed, Palmer (pigweed, palmer [16]; [26]): 100 | Plant response rating, Ragweed (ragweed [17]; [25]): 80 | Plant response rating, Ragweed (ragweed [17]; [26]): 100 | Plant response rating, Oat, Wild (oat, wild [18]; [25]): 40 | Plant response rating, Oat, Wild (oat, wild [18]; [26]): 90 | Oat, Wild plant response rating (oat, wild [19]; [23]): 30 | Plant response rating, Oat, Wild (oat, wild [19]; [24]): 70 | Foxtail, Giant plant response rating (foxtail, giant [20]; [23]): 50 | Plant response rating, Foxtail, Giant (foxtail, giant [20]; [24]): 90 | Plant response rating, Barnyardgrass (barnyardgrass): 0 | Kochia plant response rating (kochia [21]; [23]): 80 | Plant response rating, Kochia (kochia [21]; [24]): 90 | Plant response rating, Soybean (soybean [22]; [25]): 80 | Plant response rating, Soybean (soybean [22]; [26]): 100
